Test results as given in patent publication US20210179578A1, “OX1 ANTAGONISTS” (Heptares Therapeutics Limited, priority 2017, published 2021).

Experiments:
human OX1 receptor = target: T1, human OX1 receptor (Homo sapiens, UniProt O43613); assay: IPone accumulation assay, CHO cells expressing OX1 (antagonism of orexin A); type: cell-based; details: IPone accumulation, CHO human OX1, orexin A EC80 challenge (~20 nM); read-out: fpKb average OX1 (converted)
T1 sequence (O43613 1-425): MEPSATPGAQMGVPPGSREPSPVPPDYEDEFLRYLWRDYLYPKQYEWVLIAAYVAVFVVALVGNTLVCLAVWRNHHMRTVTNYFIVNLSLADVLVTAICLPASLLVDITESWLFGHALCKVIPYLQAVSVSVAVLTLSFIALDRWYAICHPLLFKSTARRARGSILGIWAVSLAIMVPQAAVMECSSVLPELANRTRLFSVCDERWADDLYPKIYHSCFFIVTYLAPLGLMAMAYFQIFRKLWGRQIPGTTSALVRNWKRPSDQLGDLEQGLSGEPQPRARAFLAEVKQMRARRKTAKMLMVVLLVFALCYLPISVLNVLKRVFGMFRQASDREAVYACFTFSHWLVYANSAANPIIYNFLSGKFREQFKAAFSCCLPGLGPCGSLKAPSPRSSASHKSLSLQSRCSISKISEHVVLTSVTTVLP
Method: Generation of CHO stable cell lines expressing the human OX1R and OX2R. Stable cell lines for the human OX1R and OX2R receptors were generated through the transfection of CHO cells using the transfection reagent Genejuice (Novagen number 70967) and cDNA coding for either the human OX1R or OX2R. Cells were cultured in Sigma Nutrient Mixture F-12 Ham media (catalog number N6658) supplemented with 10% heat-inactivated FBS. Forty-eight hours after transfection, cells were harvested and placed under geneticin selection by culturing in Sigma Nutrient Mixture F-12 Ham media supplemented with 10% heat-inactivated FBS and geneticin (ThermoFisher Catalog number: 10131035). Selection of the final stable clone for each receptor was made on the basis of receptor expression, assay signal to noise and robustness though increasing passage. Selected clones for the human OX1R and OX2R were then frozen down into liquid nitrogen using Cell Freezing Medium-DMSO (Sigma-Aldrich catalog number: C6164). IPone accumulation assay. A CHO cell line stably expressing either human OX1 or OX2 receptor was used with the IPone HTRF assay kit (CisBio: Part #62[…]) to measure receptor activation. The assay was optimised to measure the ability (potency; fpKb) of antagonists to reduce agonist (orexin A)-induced inositol phosphate turnover. Briefly, cells were plated onto half area 96-well white walled plates at a density of 12,500 cells/well. Sixteen hours post-plating cell growth media was replaced with antagonist concentration-response curve diluted in stimulation buffer (supplied with the kit). Cells were incubated in a humidified incubator (37° C.) for 30 min before an EC80 challenge concentration ( 20 nM (OX1) and 40 nM (OX2)) of orexin A (Tocris catalogue number 1455). After 30 min stimulation in a humidified incubator (37° C.) the assay was terminated by the addition of detection mixture as per manufacturer's instructions. The concentration of compound which reduced orexin-A stimulated turnover of inositol phosphates by 50% (IC50) was calculated by fitting to a four parameter sigmoidal dose response curve. The IC50 values were converted to fpKB values using the orexin A pEC50 value estimated on each plate as well as the challenge concentration interpolated from the orexin A control curve.

human OX2 receptor = target: T2, human OX2 receptor (Homo sapiens, UniProt O43614); assay: IPone accumulation assay, CHO cells expressing OX2 (antagonism of orexin A); type: cell-based; details: CHO human OX2, orexin A EC80 challenge (40 nM), read-out: fpKb average OX2 (converted)
T2 sequence (O43614 1-444): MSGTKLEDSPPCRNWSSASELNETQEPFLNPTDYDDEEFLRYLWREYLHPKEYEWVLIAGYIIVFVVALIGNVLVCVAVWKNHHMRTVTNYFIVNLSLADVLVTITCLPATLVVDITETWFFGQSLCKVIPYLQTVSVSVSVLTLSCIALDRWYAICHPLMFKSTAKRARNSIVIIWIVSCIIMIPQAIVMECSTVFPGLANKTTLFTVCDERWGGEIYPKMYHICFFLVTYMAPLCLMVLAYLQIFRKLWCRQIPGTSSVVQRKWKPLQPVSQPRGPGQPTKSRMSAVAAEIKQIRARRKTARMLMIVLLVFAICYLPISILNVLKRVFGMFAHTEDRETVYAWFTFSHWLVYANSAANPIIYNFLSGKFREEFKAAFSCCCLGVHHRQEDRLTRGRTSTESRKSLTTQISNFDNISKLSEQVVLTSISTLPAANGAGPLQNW
Method: Generation of CHO stable cell lines expressing the human OX1R and OX2R. Stable cell lines for the human OX1R and OX2R receptors were generated through the transfection of CHO cells using the transfection reagent Genejuice (Novagen number 70967) and cDNA coding for either the human OX1R or OX2R. Cells were cultured in Sigma Nutrient Mixture F-12 Ham media (catalog number N6658) supplemented with 10% heat-inactivated FBS. Forty-eight hours after transfection, cells were harvested and placed under geneticin selection by culturing in Sigma Nutrient Mixture F-12 Ham media supplemented with 10% heat-inactivated FBS and geneticin (ThermoFisher Catalog number: 10131035). Selection of the final stable clone for each receptor was made on the basis of receptor expression, assay signal to noise and robustness though increasing passage. Selected clones for the human OX1R and OX2R were then frozen down into liquid nitrogen using Cell Freezing Medium-DMSO (Sigma-Aldrich catalog number: C6164).
IPone accumulation assay. A CHO cell line stably expressing either human OX1 or OX2 receptor was used with the IPone HTRF assay kit (CisBio: Part #62IPAPEJ) to measure receptor activation. The assay was optimised to measure the ability (potency; fpKb) of antagonists to reduce agonist (orexin A)-induced inositol phosphate turnover. Briefly, cells were plated onto half area 96-well white walled plates at a density of 12,500 cells/well. Sixteen hours post-plating cell growth media was replaced with antagonist concentration-response curve diluted in stimulation buffer (supplied with the kit). Cells were incubated in a humidified incubator (37° C.) for 30 min before an EC80 challenge concentration (˜20 nM (OX1) and 40 nM (OX2)) of orexin A (Tocris catalogue number 1455). After 30 min stimulation in a humidified incubator (37° C.) the assay was terminated by the addition of detection mixture as per manufacturer's instructions. The concentration of compound which reduced orexin-A stimulated turnover of inositol phosphates by 50% (IC50) was calculated by fitting to a four parameter sigmoidal dose response curve. The IC50 values were converted to fpKB values using the orexin A pEC50 value estimated on each plate as well as the challenge concentration interpolated from the orexin A control curve.

Row | SMILES | Kb (human OX1 receptor) [nM] | Kb (human OX2 receptor) [nM]
1 | COc1ncc(C2CCc3c(F)cccc3N(Cc3c(F)cc(Br)cc3F)C2=O)cc1S(C)(=O)=O (single isomer, unassigned) [Example 21, 1-(4-bromo-2,6-difluorobenzyl)-6-fluoro-3-[6-methoxy-5-(methylsulfonyl)pyridin-3-yl]-1,3,4,5-tetrahydro-2H-1-benzazepin-2-one] | 10 | > 1580
2 | COc1ccc(CN2C(=O)N(c3cnc(OC)c(C(C)(F)F)c3)CCc3c(F)cccc32)c(F)c1 [Example 4, 3-[5-(1,1-difluoroethyl)-6-methoxypyridin-3-yl]-6-fluoro-1-(2-fluoro-4-methoxybenzyl)-1,3,4,5-tetrahydro-2H-1,3-benzodiazepin-2-one] | 15.8 | > 3980
3 | COc1cc(F)c(CN2C(=O)N(c3cnc(OC)c(C(C)(F)F)c3)CCc3c(F)cccc32)c(F)c1 [Example 8, 3-[5-(1,1-difluoroethyl)-6-methoxypyridin-3-yl]-1-(2,6-difluoro-4-methoxybenzyl)-6-fluoro-1,3,4,5-tetrahydro-2H-1,3-benzodiazepin-2-one] | 3.16 | > 316
4 | COc1ncc(N2CCc3c(F)cccc3N(Cc3c(C)cc(F)cc3F)C2=O)cc1S(C)(=O)=O [Example 18, 1-(2,4-difluoro-6-methylbenzyl)-6-fluoro-3-[6-methoxy-5-(methylsulfonyl)pyridin-3-yl]-1,3,4,5-tetrahydro-2H-1,3-benzodiazepin-2-one] | 10 | > 3160
5 | COCc1cc(F)c(CN2C(=O)N(c3cc(C(C)(F)F)c(OC)nc3OC)CCc3c(F)cccc32)c(F)c1 [Example 24, 3-[5-(1,1-difluoroethyl)-2,6-dimethoxypyridin-3-yl]-1-[2,6-difluoro-4-(methoxymethyl)benzyl]-6-fluoro-1,3,4,5-tetrahydro-2H-1,3-benzodiazepin-2-one] | 63.1 | > 3160
6 | Cc1ncc(N2CCc3c(F)cccc3N(Cc3c(F)cc(Br)cc3F)C2=O)cc1C(C)(F)F [Example 32, 1-(4-bromo-2,6-difluorobenzyl)-3-[5-(1,1-difluoroethyl)-6-methylpyridin-3-yl]-6-fluoro-1,3,4,5-tetrahydro-2H-1,3-benzodiazepin-2-one] | 63.1 | > 631
